Laboratory results reported in the NIST ThermoML archive (doi:10.1021/je4002009).
± gives the expanded uncertainty stated by the source.

Assay: mn = molality of the nth substance listed, in mol/kg
Conditions: 101 kPa, Liquid; for viscosity: Capillary tube (Ostwald / Ubbelohde) method

CN1CCCC1=O.O=S(=O)(O)c1ccccc1 [1-methyl-2-pyrrolidinone benzenesulfonate] + O
Conditions | mass density, 298.15 K [kg/m3] | mass density, 303.15 K [kg/m3] | mass density, 308.15 K [kg/m3] | viscosity, 298.15 K [mPa·s] | viscosity, 303.15 K [mPa·s] | viscosity, 308.15 K [mPa·s]
m1 = 0.0521 | 1000.25 ± 0.76 | 998.54 ± 0.77 | 996.69 ± 0.79 | 0.9266 ± 0.011 | 0.8213 ± 0.0095 | 0.7506 ± 0.0087
m1 = 0.1042 | 1003.16 ± 0.79 | 1001.68 ± 0.77 | 999.93 ± 0.76 | 0.9506 ± 0.011 | 0.845 ± 0.0098 | 0.7706 ± 0.009
m1 = 0.1369 | 1004.9 ± 0.8 | 1003.46 ± 0.79 | 1001.57 ± 0.77 | 0.9685 ± 0.011 | 0.8602 ± 0.01 | 0.7809 ± 0.0091
m1 = 0.2057 | 1008.79 ± 0.84 | 1007.07 ± 0.83 | 1004.83 ± 0.81 | 1.003 ± 0.012 | 0.8912 ± 0.01 | 0.8063 ± 0.0094
m1 = 0.2512 | 1011.09 ± 0.87 | 1009.23 ± 0.85 | 1006.69 ± 0.83 | 1.028 ± 0.012 | 0.9109 ± 0.011 | 0.8208 ± 0.0096
m1 = 0.2984 | 1013.59 ± 0.89 | 1011.55 ± 0.87 | 1008.84 ± 0.85 | 1.055 ± 0.012 | 0.9313 ± 0.011 | 0.8393 ± 0.0098
m1 = 0.3556 | 1016.55 ± 0.92 | 1014.41 ± 0.9 | 1011.59 ± 0.88 | 1.083 ± 0.013 | 0.9567 ± 0.011 | 0.8611 ± 0.01
m1 = 0.4028 | 1018.9 ± 0.95 | 1016.7 ± 0.93 | 1013.74 ± 0.9 | 1.107 ± 0.013 | 0.9774 ± 0.011 | 0.8786 ± 0.01
m1 = 0.4537 | 1021.44 ± 0.98 | 1019.25 ± 0.96 | 1016.36 ± 0.93 | 1.133 ± 0.013 | 1.002 ± 0.012 | 0.8972 ± 0.01
m1 = 0.5093 | 1024.16 ± 1 | 1022.14 ± 0.99 | 1019.21 ± 0.96 | 1.16 ± 0.013 | 1.025 ± 0.012 | 0.9174 ± 0.011
m1 = 0.6018 | 1028.61 ± 1.1 | 1026.63 ± 1 | 1023.82 ± 1 | 1.204 ± 0.014 | 1.065 ± 0.012 | 0.9514 ± 0.011
m1 = 0.6492 | 1030.83 ± 1.1 | 1028.91 ± 1.1 | 1026.28 ± 1 | 1.226 ± 0.014 | 1.085 ± 0.013 | 0.9692 ± 0.011
m1 = 0.7511 | 1035.5 ± 1.1 | 1033.54 ± 1.1 | 1030.78 ± 1.1 | 1.277 ± 0.015 | 1.13 ± 0.013 | 1.009 ± 0.012
m1 = 0.8129 | 1038.24 ± 1.2 | 1036.23 ± 1.1 | 1033.29 ± 1.1 | 1.309 ± 0.015 | 1.158 ± 0.014 | 1.034 ± 0.012
m1 = 0.871 | 1040.72 ± 1.2 | 1038.49 ± 1.2 | 1035.54 ± 1.1 | 1.341 ± 0.016 | 1.185 ± 0.014 | 1.059 ± 0.012
m1 = 0.9001 | 1042.02 ± 1.2 | 1039.67 ± 1.2 | 1036.66 ± 1.1 | 1.358 ± 0.016 | 1.198 ± 0.014 | 1.072 ± 0.013
m1 = 1.019 | 1047.01 ± 1.2 | 1044.27 ± 1.2 | 1041.12 ± 1.2 | 1.423 ± 0.017 | 1.257 ± 0.015 | 1.127 ± 0.013
m1 = 1.199 | 1054.33 ± 1.3 | 1052.06 ± 1.3 | 1049.61 ± 1.3 | 1.54 ± 0.018 | 1.358 ± 0.016 | 1.219 ± 0.014

CN1CCCC1=O.Cc1ccc(S(=O)(=O)O)cc1 [1-methyl-2-pyrrolidinone p-toluenesulfonate] + O
Conditions | mass density, 298.15 K [kg/m3] | mass density, 303.15 K [kg/m3] | mass density, 308.15 K [kg/m3] | viscosity, 298.15 K [mPa·s] | viscosity, 303.15 K [mPa·s] | viscosity, 308.15 K [mPa·s]
m1 = 0.0499 | 999.98 ± 0.76 | 998.53 ± 0.77 | 996.06 ± 0.79 | 0.9405 ± 0.011 | 0.8355 ± 0.0097 | 0.7579 ± 0.0088
m1 = 0.1012 | 1002.71 ± 0.78 | 1000.47 ± 0.76 | 998.66 ± 0.77 | 0.9707 ± 0.011 | 0.8613 ± 0.01 | 0.7776 ± 0.0091
m1 = 0.1588 | 1005.8 ± 0.81 | 1004.01 ± 0.8 | 1002.3 ± 0.78 | 0.9996 ± 0.012 | 0.8905 ± 0.01 | 0.8002 ± 0.0093
m1 = 0.1983 | 1007.95 ± 0.84 | 1006.37 ± 0.82 | 1004.65 ± 0.81 | 1.021 ± 0.012 | 0.9097 ± 0.011 | 0.8164 ± 0.0095
m1 = 0.2691 | 1011.73 ± 0.88 | 1010.16 ± 0.86 | 1008.34 ± 0.84 | 1.059 ± 0.012 | 0.9445 ± 0.011 | 0.8406 ± 0.0098
m1 = 0.3004 | 1013.31 ± 0.89 | 1011.73 ± 0.88 | 1009.85 ± 0.86 | 1.077 ± 0.013 | 0.9602 ± 0.011 | 0.8511 ± 0.0099
m1 = 0.3421 | 1015.42 ± 0.91 | 1013.71 ± 0.9 | 1011.83 ± 0.88 | 1.1 ± 0.013 | 0.9826 ± 0.011 | 0.8691 ± 0.01
m1 = 0.398 | 1018.29 ± 0.94 | 1016.41 ± 0.93 | 1014.42 ± 0.91 | 1.13 ± 0.013 | 1.007 ± 0.012 | 0.892 ± 0.01
m1 = 0.4495 | 1020.8 ± 0.97 | 1018.89 ± 0.95 | 1016.77 ± 0.93 | 1.155 ± 0.013 | 1.03 ± 0.012 | 0.9131 ± 0.011
m1 = 0.5139 | 1023.87 ± 1 | 1021.88 ± 0.98 | 1019.63 ± 0.96 | 1.191 ± 0.014 | 1.058 ± 0.012 | 0.9369 ± 0.011
m1 = 0.6053 | 1028.17 ± 1.1 | 1026.17 ± 1 | 1023.9 ± 1 | 1.241 ± 0.014 | 1.099 ± 0.013 | 0.9752 ± 0.011
m1 = 0.6615 | 1030.76 ± 1.1 | 1028.65 ± 1.1 | 1026.41 ± 1 | 1.272 ± 0.015 | 1.127 ± 0.013 | 0.9976 ± 0.012
m1 = 0.7504 | 1034.66 ± 1.1 | 1032.58 ± 1.1 | 1030.21 ± 1.1 | 1.319 ± 0.015 | 1.169 ± 0.014 | 1.036 ± 0.012
m1 = 0.7605 | 1035.06 ± 1.1 | 1033 ± 1.1 | 1030.65 ± 1.1 | 1.324 ± 0.015 | 1.173 ± 0.014 | 1.04 ± 0.012
m1 = 0.8335 | 1038.2 ± 1.2 | 1036.01 ± 1.1 | 1033.59 ± 1.1 | 1.366 ± 0.016 | 1.207 ± 0.014 | 1.072 ± 0.013
m1 = 0.9023 | 1041.05 ± 1.2 | 1038.67 ± 1.2 | 1036.34 ± 1.1 | 1.411 ± 0.017 | 1.244 ± 0.015 | 1.106 ± 0.013
m1 = 1.007 | 1045.23 ± 1.2 | 1042.61 ± 1.2 | 1040.36 ± 1.2 | 1.477 ± 0.017 | 1.299 ± 0.015 | 1.161 ± 0.014
m1 = 1.201 | 1052.61 ± 1.3 | 1050.61 ± 1.3 | 1048.17 ± 1.3 | 1.61 ± 0.019 | 1.409 ± 0.017 | 1.266 ± 0.015

Cc1ccc(S(=O)(=O)O)cc1.O=C1CCCN1C1CCCCC1 [1-cyclohexyl-2-pyrrolidinone 4-methylbenzenesulfonate] + O
Conditions | mass density, 298.15 K [kg/m3] | mass density, 303.15 K [kg/m3] | mass density, 308.15 K [kg/m3] | viscosity, 298.15 K [mPa·s] | viscosity, 303.15 K [mPa·s] | viscosity, 308.15 K [mPa·s]
m1 = 0.0502 | 1000.25 ± 0.76 | 998.76 ± 0.77 | 997.02 ± 0.78 | 0.9563 ± 0.011 | 0.8427 ± 0.0098 | 0.7524 ± 0.0088
m1 = 0.1025 | 1003.22 ± 0.79 | 1001.6 ± 0.77 | 999.85 ± 0.76 | 0.9991 ± 0.011 | 0.8853 ± 0.01 | 0.7957 ± 0.0093
m1 = 0.1513 | 1005.86 ± 0.82 | 1004.3 ± 0.8 | 1002.49 ± 0.78 | 1.035 ± 0.012 | 0.9171 ± 0.011 | 0.8304 ± 0.0097
m1 = 0.1991 | 1008.58 ± 0.84 | 1006.95 ± 0.83 | 1005.1 ± 0.81 | 1.082 ± 0.013 | 0.9514 ± 0.011 | 0.8636 ± 0.01
m1 = 0.2492 | 1011.41 ± 0.87 | 1009.76 ± 0.86 | 1007.84 ± 0.84 | 1.134 ± 0.013 | 0.9897 ± 0.011 | 0.8957 ± 0.01
m1 = 0.3015 | 1014.32 ± 0.91 | 1012.57 ± 0.89 | 1010.6 ± 0.87 | 1.186 ± 0.014 | 1.036 ± 0.012 | 0.9333 ± 0.011
m1 = 0.3524 | 1017.03 ± 0.93 | 1015.23 ± 0.92 | 1013.12 ± 0.9 | 1.24 ± 0.014 | 1.08 ± 0.013 | 0.9639 ± 0.011
m1 = 0.4007 | 1019.46 ± 0.96 | 1017.48 ± 0.94 | 1015.41 ± 0.92 | 1.289 ± 0.015 | 1.123 ± 0.013 | 0.9982 ± 0.012
m1 = 0.4491 | 1021.74 ± 0.99 | 1019.79 ± 0.97 | 1017.58 ± 0.95 | 1.337 ± 0.015 | 1.165 ± 0.014 | 1.029 ± 0.012
m1 = 0.4976 | 1023.93 ± 1 | 1021.92 ± 0.99 | 1019.7 ± 0.97 | 1.383 ± 0.016 | 1.207 ± 0.014 | 1.066 ± 0.013
m1 = 0.5503 | 1026.3 ± 1 | 1024.26 ± 1 | 1021.89 ± 0.99 | 1.435 ± 0.017 | 1.254 ± 0.015 | 1.104 ± 0.013
m1 = 0.6019 | 1028.47 ± 1.1 | 1026.37 ± 1 | 1023.96 ± 1 | 1.485 ± 0.017 | 1.3 ± 0.015 | 1.145 ± 0.013
m1 = 0.6492 | 1030.43 ± 1.1 | 1028.29 ± 1.1 | 1025.85 ± 1 | 1.537 ± 0.018 | 1.344 ± 0.016 | 1.184 ± 0.014
m1 = 0.7521 | 1034.7 ± 1.1 | 1032.51 ± 1.1 | 1030.01 ± 1.1 | 1.648 ± 0.019 | 1.44 ± 0.017 | 1.272 ± 0.015
m1 = 0.8074 | 1037 ± 1.2 | 1034.74 ± 1.1 | 1032.32 ± 1.1 | 1.715 ± 0.02 | 1.497 ± 0.017 | 1.323 ± 0.015
m1 = 0.9012 | 1040.82 ± 1.2 | 1038.55 ± 1.2 | 1036.16 ± 1.2 | 1.829 ± 0.021 | 1.596 ± 0.019 | 1.412 ± 0.017
m1 = 1.002 | 1044.83 ± 1.2 | 1042.52 ± 1.2 | 1040.19 ± 1.2 | 1.966 ± 0.023 | 1.7 ± 0.02 | 1.506 ± 0.018
m1 = 1.199 | 1051.36 ± 1.3 | 1048.95 ± 1.3 | 1046.4 ± 1.3 | 2.233 ± 0.026 | 1.907 ± 0.023 | 1.688 ± 0.02
